Assays:
GFP-Hsp70i = biological target: T1, GFP-Hsp70i (Homo sapiens, UniProt P0DMV8); assay: FLECS elution of GFP-Hsp70i from γ-phosphate-linked ATP resin; format: binding
T1 construct: host or cells: HEK 293T
Procedure: (§1) FLECS Screen: A pEGFP-tagged Hsp70i was (plasmid 15215, Addgene, Cambridge, Mass.) used in the FLECS assay and was originally cloned according to [Zeng et al. (2004). Hsp70 dynamics in vivo: effect of heat shock and protein aggregation. Journal of cell science 117, 4991-5000]. ATP used in the assay was purchased from Sigma (St. Louis, Mo.) and a 200 mM stock was prepared with low salt buffer (150 mM NaCl, 25 mM Tris, pH 7.5, 60 mM MgCl2). The γ-phosphate ATP sepharose was synthesized as previously described and stored in low salt buffer [Haystead et al. (1993). Gamma-phosphate-linked ATP-sepharose for the affinity purification of protein kinases. Rapid purification to homogeneity of skeletal muscle mitogen-activated protein kinase kinase. European journal of biochemistry/FEBS 214, 459-467]. FuGENE 6 transfection reagent (Roche, Mannheim, Germany) was used for transfection of GFP-Hsp70i into HEK 293T cells, following the manufacturer protocol. The transfection ensued for 48 hours, upon which time the cells were harvested and lysed in cell lysis buffer (150 mM NaCl, 50 mM Tris, pH 7.5, 1% Triton X-100, 1 mM EDTA, 1 mM DTT, and 1 tablet Complete Mini protease inhibitor (Roche)). Cell lysates were stored at −80° C. until further use. Upon binding the resin lysates were washed 3× with high stringency wash buffer (1 M NaCl, 25 mM Tris, pH 7.5, 60 mM MgCl2, 1 mM DTT) and 3× with low stringency wash buffer (150 mM NaCl, 25 mM Tris, pH 7.5, 60 mM MgCl2, 1 mM DTT). […]
Assembly of a focused library, consisting of 3379 purine like compounds, was described previously [Carlson et al. (2013). Fluorescence Linked Enzyme Chemoproteomic Strategy for Discovery of a Potent and Selective DAPK1 and ZIPK Inhibitor. […] The lysates were eluted from the filter plate onto a catch plate by centrifugation and the fluorescence of the eluates was measured. […] Next, the presence of GFP-Hsp70i in the eluates from the 197 primary hits was determined by Western blot. […]

Hsp70i = Hsp70i (Homo sapiens, UniProt P0DMV8); assay: Thermofluor assay, purified Hsp70i; format: binding; design: Full length Hsp70 (black arrow) and tryptic fragments (blue arrows); His tag (cleaved yes); made in house; settings: for effect on Tm of Hsp70i: compound alone; for increase of the Tm of Hsp70i: nucleotide alone, FIG. 4E/4G
Procedure: Protein Purification: Plasmids were provided for human HSPA1A, HSPA8, and HSPA1A C306D. Plasmids were transformed in Rosetta competent cells and single colonies were picked from streaked LB/ampicillin/chloramphenicol plates. Cultures were grown at 37° C. for 4-6 hours, were cooled to 15° C. and expression was induced overnight with 200 uM isopropyl 1-thio-β-D-galactopyranoside. Cells were pelleted and resuspended in Ni-lysis buffer (50 mM Na2HPO4, 300 mM NaCl, 10 mM Imidazole, 0.05% Tween-20) supplemented with Complete Mini protease inhibitor tablets (Roche, Mannheim, Germany) and […], and then sonicated. The cells were again pelleted and the supernatant was incubated with complete His-Tag purification resin (Roche, Mannheim, Germany) for 5 hours at 4° C. The resin was washed with Ni-wash buffer (50 mM Na2HPO4, 300 mM NaCl, 20 mM Imidazole, 0.05% Tween-20) and eluted with Ni-elution buffer (50 mM Na2HPO4, 300 mM NaCl, 250 mM Imidazole, 0.05% Tween-20). The elution was then incubated with tobacco etch virus protease overnight at 4° C. The following day the elution was incubated with the γ-phosphate ATP sepharose resin for 30 minutes at 4° C. Next the resin was washed with ATP-wash buffer (50 mMTris-HCl, 60 mM MgCl2, 60 mM KCl, 10 mM Citrate) supplemented with 1 mM DTT and then ATP-wash buffer supplemented with 2 mM ATP was added to the resin to elute the protein. The final elutions were concentrated in Amicon Ultra-15 Centrifugal Filter Units (EMD Millipore, Billerica, Mass.) and buffer exchanged into 25 mM HEPES, 5 mM MgCl2, 10 mM KCl (pH 7.5) and stored at −80° C. until use.
(§2) Thermofluor Assay: SYPRO orange (Molecular Probes, Eugene, Oreg.) was diluted 1:1000 in 25 mM HEPES, 5 mM MgCl2, 10 mM KCl (pH 7.5) and purified Hsp70i, Hsc70, Hsp70i C306, or Hsp90, was then added to a final dilution of 0.04 mg/ml. Where indicated 0.001% or 0.01% Triton X-100 (Sigma) was also added. The indicated compound or DMSO was then added at the specified concentration and each sample was added as 5 replicates to a 384 well plate (BioRad, Hercules, Calif.). A melt curve protocol (25° C. to 90° C., increasing 0.5° C. and a plate reading every 30 seconds) was run on a CFX384 Touch™ Real-Time PCR Detection System (BioRad). To determine the midpoint of the protein unfolding transition or Tm, GraphPad Prisim4 (La Jolla, Calif.) was used to normalize the melt curve and to calculate the first derivate of the melt curve, with the steepest point of the slope being the Tm.

[1] = tested on: Hsp70i, Hsc70, Grp78, Grp75, Hsp90; assay: Elution of HEK 293T cell lysate proteins from the ATP resin (silver stain, Western blot); format: binding; settings: Western blot
Procedure: as §1, with “DTT). Next the lysates were transferred to 0.2 μm PVDF filter 96-well plate (Corning, Corning, N.Y.) sitting on top of a black flat-bottomed 96-well catch plate (Corning).” for “DTT).”
HS-72 specifically targets Hsp70i over other members of the Hsp70 superfamily. […] To more thoroughly determine the specificity of HS-72 for Hsp70i, the HEK 293T eluates were also analyzed for other Hsp70 family members Hsc70, Grp78, and Grp75, as well as Hsp90 by Western blot. […] The linker on the resin was cleaved using sodium dithionite and the samples were subjected to SDS-PAGE and analyzed by Western blot, silver stain, and mass spectrometry. […]

Hsp90 = assay: Thermofluor assay, Hsp90; format: binding
Procedure: as §2

Her2 and Akt = assay: Degradation assay (Western blot of client proteins); format: cell-based; settings: compound alone
Procedure: Western Blotting: SDS-PAGE was carried out using Criterion™ Cell system using pre-casted 4-20% or 4-15% Criterion™ Tris-HCl gels (BioRad, Hercules, Calif.). For Western blotting gels were run at 200V for 1 hour using the PowerPac basic power supply (BioRad, Hercules, Calif.). Next, gels were transferred to nitrocellulose for blotting at 100V for 1 hour (Fisher Scientific, Waltham, Mass.). Nitrocellulose membranes were blocked with 5% dry non-fat milk in phosphate-buffered saline (PBS) with 0.01% Tween-20 for 1 hour at room temperature. Membranes were incubated with primary antibodies (1:1000 dilution) overnight at 4° C. The next day membranes were washed 3× in PBS-Tween, incubated for 1 hour at room temperature with secondary antibodies, and further washed 3× in PBS-Tween. ECL Plus Western blotting reagent (Pierce Biotechnology, Rockford, Ill.) was used to detect antibodies. GFP, Her2, Akt, Hsp70, Hsc70, Grp78, Grp75, and Hsp90 primary antibodies and all associated secondary antibodies were purchased from Cell Signaling Technology (Danvers, Mass.).
Degradation Assay: The specified cells were seeded overnight and then treated with the indicated concentration of compound for 24 hours. The cells were then harvested and subjected to analysis by Western blot.

MCF7 = assay: Cell proliferation, MCF7; format: cell-based
Procedure: (§3) Cell Proliferation: Cell proliferation was determined using a Hoechst stain (Sigma, St. Louis, Mo.) to quantify DNA. 5,000 cells of the designated cell line were plated in 96 well plates and treated the next day, designated as time point 0, with the indicated concentration of the specified compound maintained for the duration of the assay. At the indicated time points the media was removed and plated frozen at −80° C. Double distilled H2O was then added and the plates were incubated at 37° C. for 1 hour. After 1 hour the plates were frozen at −80° C. After freezing the plates were thawed and Hoechst stain was diluted 1:1000 in THE buffer (10 mM Tris, 2M NaCl, 1 mM Na2EDTA). The final fluorescence was measured on the Victor X2 plate reader at 355/460 nm, and cell proliferation was determined with the formula: % Cell Proliferation=100×(Sample fluorescence−background fluorescence)/(Control fluorescence−background fluorescence).

SkBr3 = assay: Cell proliferation, SkBr3; format: cell-based
Procedure: as §3

Hsp70i, sequence (P0DMV8 whole entry, the tested form may be a part): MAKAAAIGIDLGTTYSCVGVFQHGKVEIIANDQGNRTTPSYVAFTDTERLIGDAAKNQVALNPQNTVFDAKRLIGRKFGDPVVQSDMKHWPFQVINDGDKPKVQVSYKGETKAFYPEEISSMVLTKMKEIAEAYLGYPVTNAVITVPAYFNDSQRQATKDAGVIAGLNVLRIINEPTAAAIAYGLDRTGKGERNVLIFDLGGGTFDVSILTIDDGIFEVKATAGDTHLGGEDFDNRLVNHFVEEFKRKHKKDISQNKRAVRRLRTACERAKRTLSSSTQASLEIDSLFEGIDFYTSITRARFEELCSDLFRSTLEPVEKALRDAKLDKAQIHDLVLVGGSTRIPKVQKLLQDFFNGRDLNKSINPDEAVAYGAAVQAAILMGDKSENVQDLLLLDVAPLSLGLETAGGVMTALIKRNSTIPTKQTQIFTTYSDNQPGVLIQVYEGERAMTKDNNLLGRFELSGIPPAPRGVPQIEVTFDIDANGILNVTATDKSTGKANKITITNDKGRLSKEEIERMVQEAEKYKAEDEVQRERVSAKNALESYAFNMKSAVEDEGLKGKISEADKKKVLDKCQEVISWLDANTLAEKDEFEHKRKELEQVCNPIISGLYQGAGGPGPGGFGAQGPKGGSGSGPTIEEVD
T1 sequence (P0DMV8 whole entry): as the sequence (P0DMV8 whole entry, the tested form may be a part) above

Question: Which “nucleotide concentration needed to release bound GFP-Hsp70i from the γ-linked ATP resin” value (GFP-Hsp70i) does the source give for `Nc1ncnc2c1ncn2[C@@H]1O[C@H](COP(=O)(O)OP(=O)(O)O)[C@@H](O)[C@H]1O` [ADP, reference compound] here?
Answer: mM

Question: What about the “effect on Tm of Hsp70i” value (Hsp70i) of the same compound?
Answer: increase the Tm of Hsp70i in a dose dependent manner

Question: What about the “increase of the Tm of Hsp70i” value (Hsp70i) of the same compound?
Answer: 2.5 °C

Question: For `Nc1ncnc2c1ncn2[C@@H]1O[C@H](COP(=O)(O)OP(=O)(O)OP(=O)(O)O)[C@@H](O)[C@H]1O` [ATP, reference compound], which “nucleotide concentration needed to release bound GFP-Hsp70i from the γ-linked ATP resin” value (GFP-Hsp70i) is on record?
Answer: low μM

Question: And the “Hsp70 family members and Hsp90 eluted from the ATP resin” value [1]?
Answer: All the Hsp70 family members and Hsp90 are eluted

Question: And the “effect on Tm of Hsp70i” value (Hsp70i)?
Answer: increase the Tm of Hsp70i in a dose dependent manner

Question: And the “increase of the Tm of Hsp70i” value (Hsp70i)?
Answer: 3 °C

Question: `Cc1nn(-c2ccc(C(N)=O)c(N[C@H]3CC[C@H](O)CC3)c2)c2c1C(=O)CC(C)(C)C2` [HS-10, 2-(((1r,4r)-4-hydroxycyclohexyl)amino)-4-(3,6,6-trimethyl-4-oxo-4,5,6,7-tetrahydro-1H-indazol-1-yl)benzamide, reference compound] was tested. Which “increase of the Tm of Hsp90” value (Hsp90) did it give?
Answer: 10.5 °C

Question: What about the “Tm of Hsp90 in presence of compound” value (Hsp90; from 50° C. without compound) of the same compound?
Answer: 60.5 °C

Question: What about the Hsp70 protein levels (Her2 and Akt) of the same compound?
Answer: increased Hsp70 protein levels

Question: What about the “Akt and Her2 expression” value (Her2 and Akt; BT474 breast cancer cells) of the same compound?
Answer: induced degradation of Her2 and Akt

Question: With `CCCn1c(NC(=O)[C@@H]2CCCN(c3cnccn3)C2)nc2ccccc21` [HS-71, (R)—N-(1-propyl-1H-benzo[d]imidazol-2-yl)-1-(pyrazin-2-yl)piperidine-3-carboxamide] as the compound, how does the cell proliferation (MCF7; MCF7, 24 hours) read?
Answer: no effect on proliferation

Question: What about the cell proliferation (MCF7; MCF7, 48 hours at 25 uM and 50 uM) of the same compound?
Answer: inhibition

Question: And the “cell proliferation, concentration with significant inhibition” value (MCF7; MCF7, 72 hours)?
Answer: 50 uM alone

Question: What about the cell proliferation (SkBr3; SkBr3, 48 and 72 hours at 25 uM and 50 uM) of the same compound?
Answer: inhibition in proliferation

Question: What about the cell proliferation (SkBr3; SkBr3, 24 hours) of the same compound?
Answer: no effect on proliferation

Question: And the “effect on Tm of Hsp70i” value (Hsp70i)?
Answer: does not change

Question: And the “effect on Tm of the ATP bound Hsp70i” value (Hsp70i; in presence of ATP)?
Answer: does not change

Question: Which “effect on Tm of Hsp70i” value (Hsp70i) does the source give for `NS(=O)(=O)C#Cc1ccccc1` [PES, pifithrin-μ, reference compound] here?
Answer: no dose dependent effect

Question: `N#Cc1ccc(COC[C@H]2O[C@@H](n3c(NCc4ccc(Cl)c(Cl)c4)nc4c(N)ncnc43)[C@H](O)[C@@H]2O)cc1` [VER, VER-15508, reference compound] was tested. Which “effect on Tm of Hsp70i” value (Hsp70i) did it give?
Answer: increase

— patent US10000469B2, “Heat shock protein 70 (hsp-70) receptor ligands” (Duke University, priority 2014, dated 2018)
